Source: patent publication US8815799B2, “Inhibiting striated muscle activator of RHO (stars) to improve glycemic control” (Joslin Diabetes Center, Inc., priority 2010, dated 2014)
Entries after “also recorded” stand apart in the source; their conditions may differ.

Key:
[1] = tested on: C2C12 myotubes; experiment: Deoxyglucose uptake in cultured myotubes (FIG. 11E); format: cell-based
Source text: (§1) Since CCG-1423 increased insulin signalling in myotubes, we hypothesized that CCG-1423 might also enhance glucose uptake. In DMSO (vehicle)-treated myotubes, insulin stimulated a 2-fold increase in deoxyglucose uptake in a dose-dependent manner, consistent with prior reports and the low insulin responsiveness in cultured myotubes (FIG. 11E). […] In parallel, expression of the dominant glucose transporters GLUT4 and GLUT1 was increased by CCG-1423 treatment by 4.1 and 2.5 fold, respectively (p<0.004).
(§2) To determine whether increased expression of STARS can modulate glucose uptake, basal and insulin-stimulated glucose uptake in are measured in L6 myotubes overexpressing STARS (day 6 of differentiation). In brief, following overnight serum starvation, myotubes are treated with insulin (0 to 100 nM) for 20 minutes and then incubated with transport solution (140 mM NaCl, 20 mM Hepes, 5 mM KCl, 2.5 mM MgSO4, 1.0 mM CaCl2, 10 μM 2-deoxyglucose, 0.5 μCi/mL [^3H]-2-deoxyglucose) for 10 minutes. Cells are lysed in 0.05N NaOH and radioactivity determined by scintillation counting. All assays are performed in quadruplicate and corrected by uptake in cytochalasin-treated wells. Glucose transport assays are also performed in STARS-Myc-GLUT4 cells, given their higher insulin responsiveness.

[2] = tested on: Myc-GLUT4 L6 myotubes; experiment: Glucose uptake in Myc-GLUT4 L6 myotubes; format: cell-based
Procedure: as §2
(§3) To address whether STARS and MKL1-dependent SRF transcriptional activity contribute to the pathophysiology of insulin resistance, experiments were performed to test whether modulation of STARS expression and/or SRF activation can improve key cellular phenotypes associated with insulin resistance, including insulin action and glucose uptake. L6 myotubes stably expressing Myc-GLUT4 were infected with an adenovirus containing a short hairpin targeting STARS, resulting in a 54% reduction in STARS protein expression; this was associated with a 3.7-fold increase in basal glucose uptake and a 3.6-fold increase in insulin-stimulated glucose uptake (FIG. 19A).
To test the effect of reduced STARS expression (shRNA) and reduced SRF pathway activation (chemical inhibitor CCG-1423) in cultured myotubes, knock-down assays were performed. shSTARS target sequences (Forward 5′-[…] […] A-3′ (SEQ ID NO:1); Reverse 5′-[…] […] […]-3′ (SEQ ID NO:2)), or scrambled control (IDT RNA design), were cloned into pAdTrack-CMV adenoviral vector, and Myc-GLUT4 L6 myotubes were infected with amplified adenovirus (8×10^7 pfu/well, 6-well plate) at 3 days after differentiation. […] Thus, experimental reductions in STARS expression are associated with an increase insulin signaling and basal glucose uptake in cultured myotubes.
Since genetic knockdown of STARS expression enhanced glucose transport, a key question is whether pharmacologic inhibition of SRF transcriptional activity would similarly modulate glucose transport. Studies with CCG-1423, an SRF transcriptional inhibitor identified by compound library screening, were performed. […] By comparison, insulin stimulated glucose uptake by 1.6-fold (p<0.01; FIG. 20).

[3] = tested on: MKL1; experiment: MKL1 cellular localization in C2C12 myoblasts; format: cell-based
Procedure: Since MKL1 is known to shuttle between the cytosol and nucleus to modulate target gene expression (Vartiainen et al., Science. 316:1749-1752 (2007)), the possibility arises that MKL1 localization may differ in insulin resistant state as compared to the normal state. […] In the basal state, MKL1 predominantly localized to cytosol and partially in nucleus. After 30 minutes of serum stimulation, MKL1 translocated to the […]. […] To determine whether MKL1 and G actin complex formation is changed in insulin resistance, the nuclear and cytosolic fractions from C2C12 myotubes were co-immunoprecipitated with MKL1 and blotted with beta actin.
To determine if the effects of CCG-1423 on SRF activity were mediated via MKL1 localization, MKL1 localization was assessed in C2C12 myoblasts treated with CCG-1423.

[4] = tested on: SRF transcriptional activity; experiment: SRF transcriptional activity, 4x CArG (SRE) promoter luciferase reporter in C2C12 cells; format: cell-based; conditions: activity induced by serum, dexamethasone or insulin, CCG-1423 1 μM, 16 hours pre-treatment (FIG. 10, 11B)
Procedure: FIG. 11B is a bar graph showing the effect of CCG on SRF transcriptional activity. 4× CArG promoter is activated in response to serum stimulation (FBS 2 hours, control) and following overnight treatment with 100 μM dexamethasone (DEX) in C2C12 myoblasts. This SRF-mediated transcriptional activity was blocked by pre-treatment with CCG-1423 (1 μM, 16 hours).
To determine whether SRF transcriptional activity is also changed in insulin resistance, 4× tandem repeat of SRF binding element (SRE) CArG boxes (Kuwahara et al., Mol. Cell Biol. 25:3173-3181 (2005)) promoters linked to a luciferase gene were used as a reporter. […] These increases in SRF transcriptional activity in insulin resistant states could cause up-regulation of SRF target gene expression.

[5] = tested on: p42/44 ERK; experiment: p42/44 ERK phosphorylation in C2C12 myotubes; format: cell-based; conditions: overnight 1 μM CCG-1423 (FIG. 11C)
Procedure: (§4) In parallel, CCG-1423 enhanced insulin action in C2C12 myotubes. Overnight treatment with 1 μM CCG-1423 increased insulin-stimulated Akt phosphorylation, both in the presence and absence of dexamethasone (41% for both, p=0.01 and p=0.007, respectively), while having no effect on p42/44 ERK phosphorylation (FIG. 11C).

[6] = tested on: SRF, ELK1, SRF targets (ZYX, PDLIM7); experiment: Gene expression in skeletal muscle of HFD mice treated with CCG-1423; format: in vivo
Procedure: (§5) To examine the therapeutic potential of this SRF inhibitor in vivo, we assessed responses to CCG-1423 treatment in mice with diet-induced obesity. […] The HFD mice were administered CCG-1423 (0.15 mg/kg body weight intraperitoneally) for two weeks.

[7] = CCG-1423 treatment of high-fat diet-fed mice (glucose tolerance, insulin, body weight); format: in vivo
Procedure: as §5
In parallel, the high insulin levels associated with insulin resistance were normalized by CCG-1423 treatment (FIG. 13C).
To test this hypothesis, mice are treated with CCG-1423 in 2 models of murine insulin resistance: (1) high-fat diet-fed C57BL/6J mice (60% of calories from fat), or (2) genetically obese ob/ob mice. For these studies, mice are injected with CCG-1423 0.15 mg/kg/day or vehicle (DMSO), intraperitoneally, for 2 weeks. Body weight and food intake are monitored daily.

[8] = tested on: L6 myotubes; experiment: 2-deoxyglucose uptake in L6 myotubes (FIG. 11E legend); format: cell-based; conditions: CCG-1423 1 μM, 16 hours
Procedure: FIG. 11E is a line graph showing that both basal and insulin-stimulated 2-deoxyglucose uptake are increased by >4-fold in L6 myotubes following CCG-1423, with enhanced insulin sensitivity (1 μM, 16 hours). * indicates p<0.05, **p<0.01,***p<0.001.
as §2

[9] = tested on: IRS-1; experiment: IRS-1 tyrosine phosphorylation and association with p85 PI 3-kinase in myotubes; format: cell-based
Procedure: FIG. 11D is a phosphoimmunoblot showing that CCG-1423 increases basal and insulin-stimulated tyrosine phosphorylation of IRS-1 and its association with p85-PI 3-kinase, in both control and DEX-treated myotubes. * indicates p<0.05, **p<0.01, ***p<0.001.
as §4

[10] = tested on: GLUT1; experiment: GLUT1 expression in myotubes; format: cell-based; conditions: myotubes treated with CCG-1423
Source text: as §1, §3

[11] = tested on: human myotubes; experiment: Basal glucose uptake in human myotubes from control and diabetic subjects; format: cell-based
Procedure: The effects of CCG-1423 on human myotubes, and whether these effects would differ in myotubes derived from controls (n=2) vs. diabetic subjects (n=6), were also evaluated. […] The differential responsiveness in subjects with DM supports the concept that SRF pathways are more robustly activated in humans with insulin resistance and DM, and therefore potentially more sensitive to SRF inhibition.

[12] = tested on: Akt; experiment: Akt phosphorylation (phosphoimmunoblot) in C2C12 myotubes; format: cell-based; conditions: for increase in insulin-stimulated Akt phosphorylation: C2C12 myotubes, overnight 1 μM CCG-1423
Procedure: The next experiments were performed to determine whether SRF transcriptional activity, rather than expression of SRF itself, is important for maintaining appropriate insulin sensitivity. A new compound, CCG-1423, is available for specifically inhibiting SRF transcriptional activity (Evelyn et al., Mol. Cancer Ther. 6:2249-2260 (2007)). […] CCG-1423 was then evaluated to test the possibility that reducing SRF transcriptional activity improves insulin sensitivity. Indeed, this is the case.
as §4

[13] = tested on: GLUT4; experiment: GLUT4 expression in myotubes; format: cell-based; conditions: myotubes treated with CCG-1423
Source text: as §1, §3

[14] = tested on: STARS; experiment: STARS expression in C2C12 myotubes after actin disruption; format: cell-based; conditions: disruption of actin
Source text: Additional pathway analysis using MAPPFinder confirmed that serum response factor (SRF)-dependent and actin-related cytoskeleton gene expression is increased in diabetes, and more importantly, also in insulin resistance. The top-ranking single gene differentially expressed in skeletal muscle in the fasting state is the Actin-binding Rho activating protein (ABRA), or STARS, increased by 2.5 fold in individuals with type 2 diabetes (p<0.01). This gene regulates intracellular actin dynamics and subcellular localization of MKL1/2, thus contributing to SRF-dependent gene transcription. Since disruption of actin by latrunculin B increases STARS expression in C2C12 cells by 50% in C2C12 myotubes (p<0.03, not shown), it was hypothesize that increased STARS expression in DM may reflect disruption of actin dynamics and also contribute to the pattern of increased SRF-related gene expression. Similar patterns of SRF-dependent expression are also observed in adipose tissue from insulin resistant subjects and in insulin resistant muscle.

[15] = CCG-1423 0.15 mg/kg intraperitoneally, two weeks
[16] = HFD mice, CCG-1423 0.15 mg/kg intraperitoneally, two weeks, vs vehicle-treated HFD mice, 0.15 mg/kg
[17] = control and DEX-treated myotubes (FIG. 11D)

insulin
insulin-stimulated increase in deoxyglucose uptake ([1]; DMSO (vehicle)-treated myotubes, dose-dependent): 2 fold
insulin-stimulated glucose uptake ([2]; Myc-GLUT4 L6 myotubes, insulin alone (FIG. 20)): 1.6 fold

CC(ONC(=O)c1cc(C(F)(F)F)cc(C(F)(F)F)c1)C(=O)Nc1ccc(Cl)cc1 (stereo not shown) [CCG-1423]
MKL1 cytosol/nuclear localization [3]: almost exclusively localized to the cytoplasm; also recorded: reversed dexamethasone-induced MKL1 nuclear localization to partial cytoplasmic localization; also recorded: inhibition of MKL1 nuclear localization; also recorded: reduced nuclear translocation of MKL1
increase in glucose uptake, basal state ([1]; myotubes incubated with CCG-1423 (FIG. 11E)): 4 fold
insulin-stimulated glucose uptake response ([1]; myotubes incubated with CCG-1423, 1 μM insulin (FIG. 11E)): 11.5 fold
inhibition of SRF transcriptional activity / SRE promoter activity [4]: specifically blocks SRF transcriptional activity; also recorded: reduced SRE promoter activity and efficiently blocked both serum- and dexamethasone-stimulated activation; also recorded: reduces SRE promoter activity; also recorded: inhibits SRF activity
p42/44 ERK phosphorylation [5]: no effect; also recorded: minimal change
expression of ELK1 [6, 15]: did not alter
expression of SRF [6, 15]: did not alter
expression of SRF targets in skeletal muscle, e.g., ZYX and PDLIM7 ([6]; CCG-1423 two weeks, vs vehicle-injected controls): significantly decreased
serum insulin levels during glucose tolerance test ([7]; HFD mice, 15 minutes after glucose injection, vs vehicle-treated HFD animals): normalized; also recorded: significantly reduced
body weight [7, 16]: No significant change; also recorded: no differences; also recorded: not altered
food intake [7, 16]: No significant change; also recorded: no differences
in vivo glucose tolerance (intraperitoneal glucose tolerance test) [7, 16]: significantly improved; also recorded: improves glucose tolerance; also recorded: improved in vivo glucose tolerance
adiponectin levels ([7]; HFD mice, CCG-1423 two weeks): No differences
circulating fatty acid levels ([7]; HFD mice, CCG-1423 two weeks): No differences
insulin tolerance testing ([7]; HFD mice, CCG-1423 two weeks): No differences
glucose tolerance test area under the curve (AUC) ([7]; HFD mice, CCG-1423 two weeks, vs vehicle-treated HFD animals): significantly reduced
reduction of fed insulin levels ([7]; HFD-fed mice, CCG-1423 0.15 mg/kg/day intraperitoneally, 2 weeks, vs HFD-fed mice): 50%
increase in basal and insulin-stimulated 2-deoxyglucose uptake [8]: > 4 fold
basal and insulin-stimulated glucose uptake (figure legend) ([2]; Myc-GLUT4 L6 myotubes (FIG. 19A, FIG. 20)): increases basal and insulin-stimulated 2-deoxyglucose uptake
increase in basal glucose uptake ([2]; Myc-GLUT4 L6 myotubes, CCG-1423 1 μM, 16 hours): 1.9 fold
increase in glucose uptake, combination with insulin ([2]; Myc-GLUT4 L6 myotubes, combination of CCG-1423 and insulin): 2.6 fold
association of IRS-1 with p85 regulatory subunit of PI 3-kinase [9, 17]: increases
basal and insulin-stimulated tyrosine phosphorylation of IRS-1 [9, 17]: increases
p85 expression ([9]; myotubes treated with CCG-1423): without altering
increase in GLUT1 expression [10]: 2.5 fold
basal increase in glucose uptake, mean ([11]; human myotubes from control subjects (n=2)): 1.2 fold
basal increase in glucose uptake, mean ([11]; human myotubes from diabetic subjects (n=6)): 3.2 fold
increase in insulin-stimulated Akt phosphorylation ([12]; absence of dexamethasone): 41%
increase in insulin-stimulated Akt phosphorylation ([12]; presence of dexamethasone): 41%
insulin-stimulated Akt phosphorylation (marker of insulin sensitivity) ([12]; myotubes, with or without dexamethasone, insulin 100 nM, 10 minutes (FIG. 11A, 11C)): increased insulin-simulated Akt phosphorylation; also recorded: improves insulin-stimulated Akt phosphorylation; also recorded: increases insulin-stimulated Akt phosphorylation
increase in GLUT4 expression [13]: 4.1 fold

C/C1=C/C(=O)O[C@@H]2C[C@@H](CC[C@H](C)/C=C\CC1)O[C@@](O)([C@@H]1CSC(=O)N1)C2 [latrunculin B]
increase in STARS expression [14]: 50%
